Measurements: patent US7815945B2, “Medicament for the prevention and treatment of influenza” (priority 2005, dated 2010)

Tested on: A549 cells
Assay: Apoptotic caspase activation (Western blot for PARP cleavage)
Details: 48 h, extract 25 μg/ml and 50 μg/ml, staurosporine as positive control, FIG. 3

SMILES: CN[C@@H]1C[C@H]2O[C@@](C)([C@@H]1OC)n1c3ccccc3c3c4c(c5c6ccccc6n2c5c31)C(=O)NC4 [staurosporine]
- cleavage of the caspase substrate PARP (caspase activity): efficient cleavage of the caspase substrate
